Reference: ChEMBL document CHEMBL4800726, “Data for DCP probe MSC-4381” (2021)

Columns and labels:
[1] = target: 5-hydroxytryptamine receptor 2B (Homo sapiens) (UniProt P41595); settings: Compound concentration 10.0 uM
[2] = target: Sodium-dependent dopamine transporter (Homo sapiens, UniProt Q01959); settings: Compound concentration 10.0 uM
[3] = target: T1, Muscarinic acetylcholine receptor M5 (Homo sapiens) (UniProt P08912); experiment: M5 (h) Eurofins-Cerep binding assay; parameters: ligand concentration 0.3 nM; settings: filed as antagonist, Compound concentration 10.0 uM
T1 sequence (whole entry): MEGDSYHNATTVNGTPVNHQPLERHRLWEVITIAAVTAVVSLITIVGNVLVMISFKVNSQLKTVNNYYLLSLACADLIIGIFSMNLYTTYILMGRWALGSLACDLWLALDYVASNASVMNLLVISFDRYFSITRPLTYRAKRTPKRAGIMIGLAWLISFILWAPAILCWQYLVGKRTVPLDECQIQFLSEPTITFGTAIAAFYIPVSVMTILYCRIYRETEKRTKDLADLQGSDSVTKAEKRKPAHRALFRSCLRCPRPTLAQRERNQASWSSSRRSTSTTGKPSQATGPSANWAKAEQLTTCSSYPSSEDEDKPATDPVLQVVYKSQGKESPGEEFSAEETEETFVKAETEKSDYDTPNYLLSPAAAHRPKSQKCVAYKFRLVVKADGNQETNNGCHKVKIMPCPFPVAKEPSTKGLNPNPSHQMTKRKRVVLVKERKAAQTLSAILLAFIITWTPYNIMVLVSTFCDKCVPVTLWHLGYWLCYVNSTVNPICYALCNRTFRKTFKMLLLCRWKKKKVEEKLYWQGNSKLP

[4] = target: T2, 5-hydroxytryptamine receptor 3A (Homo sapiens) (UniProt P46098); settings: Compound concentration 10.0 uM
T2 sequence (whole entry): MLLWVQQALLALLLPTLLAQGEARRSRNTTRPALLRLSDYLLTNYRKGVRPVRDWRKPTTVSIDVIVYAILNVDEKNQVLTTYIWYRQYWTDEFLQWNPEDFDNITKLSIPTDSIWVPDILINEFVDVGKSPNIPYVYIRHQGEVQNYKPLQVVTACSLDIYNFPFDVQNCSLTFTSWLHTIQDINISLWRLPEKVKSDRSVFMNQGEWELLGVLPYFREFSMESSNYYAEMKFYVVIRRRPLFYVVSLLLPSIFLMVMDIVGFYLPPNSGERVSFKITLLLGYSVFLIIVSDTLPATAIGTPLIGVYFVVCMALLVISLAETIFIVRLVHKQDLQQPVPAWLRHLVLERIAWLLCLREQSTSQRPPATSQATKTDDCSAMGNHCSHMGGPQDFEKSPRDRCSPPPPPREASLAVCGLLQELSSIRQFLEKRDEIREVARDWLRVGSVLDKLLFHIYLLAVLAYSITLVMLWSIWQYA

[5] = target: Histamine H1 receptor (Homo sapiens) (UniProt P35367); settings: Compound concentration 10.0 uM
[6] = target: Delta-type opioid receptor (Homo sapiens, UniProt P41143); settings: Compound concentration 10.0 uM
[7] = target: Neuropeptide Y receptor type 2 (Homo sapiens) (UniProt P49146); experiment: Y2 (h) Eurofins-Cerep binding assay; parameters: ligand concentration 0.015 nM; settings: filed as agonist, Compound concentration 10.0 uM
[8] = target: T3, Muscarinic acetylcholine receptor M1 (Homo sapiens) (UniProt P11229); experiment: M1 (h) Eurofins-Cerep binding assay; parameters: ligand concentration 2 nM; settings: filed as antagonist, Compound concentration 10.0 uM
T3 sequence (whole entry): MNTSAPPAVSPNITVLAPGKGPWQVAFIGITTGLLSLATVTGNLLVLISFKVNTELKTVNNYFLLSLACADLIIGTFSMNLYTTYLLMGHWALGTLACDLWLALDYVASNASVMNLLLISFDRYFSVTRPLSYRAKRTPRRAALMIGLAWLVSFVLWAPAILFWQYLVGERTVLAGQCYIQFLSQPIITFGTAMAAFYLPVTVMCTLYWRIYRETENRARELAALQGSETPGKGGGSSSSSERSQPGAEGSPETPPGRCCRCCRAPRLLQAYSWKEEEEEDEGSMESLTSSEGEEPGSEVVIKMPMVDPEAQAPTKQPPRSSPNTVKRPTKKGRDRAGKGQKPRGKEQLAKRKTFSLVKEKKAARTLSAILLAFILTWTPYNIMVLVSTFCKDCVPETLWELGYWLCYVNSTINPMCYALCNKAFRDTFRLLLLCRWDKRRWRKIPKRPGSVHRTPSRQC

[9] = target: GABA-A receptor; anion channel (Rattus norvegicus) (UniProt O09028+P15431+P18506+P18508+P19969+P20236+P23574+P23576+P28471+P28473+P30191+P62813+P63079+P63138+Q91ZM7+Q9ES14); experiment: Cl- channel (GABA-gated) Eurofins-Cerep binding assay; type: protein-complex assay; parameters: ligand concentration 3 nM; settings: filed as antagonist, Compound concentration 10.0 uM
[10] = target: Sodium-dependent serotonin transporter (Homo sapiens) (UniProt P31645); settings: Compound concentration 10.0 uM
[11] = target: D(1A) dopamine receptor (Homo sapiens) (UniProt P21728); settings: Compound concentration 10.0 uM
[12] = target: Muscarinic acetylcholine receptor M4 (Homo sapiens) (UniProt P08173); settings: Compound concentration 10.0 uM
[13] = target: Alpha-1D adrenergic receptor (Homo sapiens) (UniProt P25100); settings: Compound concentration 10.0 uM
[14] = target: C-X-C chemokine receptor type 2 (Homo sapiens) (UniProt P25025); experiment: CXCR2 (IL-8B) (h) Eurofins-Cerep binding assay; parameters: ligand concentration 0.025 nM; settings: filed as agonist, Compound concentration 10.0 uM
[15] = target: Melatonin receptor type 1A (Homo sapiens) (UniProt P48039); experiment: MT1 (ML1A) (h) Eurofins-Cerep binding assay; parameters: ligand concentration 0.01 nM; settings: filed as agonist, Compound concentration 10.0 uM
[16] = target: T4, 5-hydroxytryptamine receptor 1A (Homo sapiens) (UniProt P08908); settings: Compound concentration 10.0 uM
T4 sequence (whole entry): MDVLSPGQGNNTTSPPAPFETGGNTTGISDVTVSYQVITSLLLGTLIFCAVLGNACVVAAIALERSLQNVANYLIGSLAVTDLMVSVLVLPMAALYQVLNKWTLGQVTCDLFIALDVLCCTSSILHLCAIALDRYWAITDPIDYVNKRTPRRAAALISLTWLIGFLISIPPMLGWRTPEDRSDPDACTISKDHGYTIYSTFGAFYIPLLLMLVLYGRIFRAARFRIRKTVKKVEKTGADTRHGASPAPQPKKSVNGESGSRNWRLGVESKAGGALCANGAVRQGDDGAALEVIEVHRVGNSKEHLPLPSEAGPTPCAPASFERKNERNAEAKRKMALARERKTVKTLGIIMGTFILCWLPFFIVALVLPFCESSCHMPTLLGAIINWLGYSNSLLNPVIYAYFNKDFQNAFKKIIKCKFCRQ

[17] = target: Vasopressin V1a receptor (Homo sapiens) (UniProt P37288); experiment: V1a (h) Eurofins-Cerep Cellular and Nuclear Receptor Functional Assays; settings: Compound concentration 10.0 uM
[18] = target: D(3) dopamine receptor (Homo sapiens) (UniProt P35462); settings: Compound concentration 10.0 uM

Sequence of Delta-type opioid receptor (P41143 whole entry): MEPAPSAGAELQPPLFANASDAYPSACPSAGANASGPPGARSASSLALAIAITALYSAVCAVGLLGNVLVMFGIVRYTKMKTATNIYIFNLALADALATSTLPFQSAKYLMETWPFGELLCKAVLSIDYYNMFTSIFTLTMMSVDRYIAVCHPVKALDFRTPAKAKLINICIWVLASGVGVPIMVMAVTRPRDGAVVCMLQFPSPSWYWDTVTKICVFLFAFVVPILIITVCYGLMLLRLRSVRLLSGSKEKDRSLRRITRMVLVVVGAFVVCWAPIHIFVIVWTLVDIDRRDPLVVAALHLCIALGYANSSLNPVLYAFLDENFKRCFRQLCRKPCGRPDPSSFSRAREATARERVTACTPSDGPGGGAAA
Sequence of Sodium-dependent dopamine transporter (Q01959 whole entry): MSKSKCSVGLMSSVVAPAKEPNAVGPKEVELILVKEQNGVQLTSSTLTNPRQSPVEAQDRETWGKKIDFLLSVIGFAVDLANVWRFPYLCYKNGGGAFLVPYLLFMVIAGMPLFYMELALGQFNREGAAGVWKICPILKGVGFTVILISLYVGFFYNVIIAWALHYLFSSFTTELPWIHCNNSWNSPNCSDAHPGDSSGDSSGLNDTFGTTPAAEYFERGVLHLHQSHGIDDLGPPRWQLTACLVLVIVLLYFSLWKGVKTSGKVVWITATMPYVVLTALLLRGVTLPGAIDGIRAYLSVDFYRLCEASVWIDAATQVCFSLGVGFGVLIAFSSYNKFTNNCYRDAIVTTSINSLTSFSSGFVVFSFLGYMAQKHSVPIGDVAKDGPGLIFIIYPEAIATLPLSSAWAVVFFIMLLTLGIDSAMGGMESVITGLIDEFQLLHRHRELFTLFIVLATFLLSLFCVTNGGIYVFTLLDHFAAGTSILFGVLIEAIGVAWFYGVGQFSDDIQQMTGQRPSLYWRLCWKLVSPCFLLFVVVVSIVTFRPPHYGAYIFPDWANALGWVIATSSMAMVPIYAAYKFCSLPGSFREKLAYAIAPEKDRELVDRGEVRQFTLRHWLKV
Sequence of Histamine H1 receptor (Homo sapiens) (P35367 whole entry): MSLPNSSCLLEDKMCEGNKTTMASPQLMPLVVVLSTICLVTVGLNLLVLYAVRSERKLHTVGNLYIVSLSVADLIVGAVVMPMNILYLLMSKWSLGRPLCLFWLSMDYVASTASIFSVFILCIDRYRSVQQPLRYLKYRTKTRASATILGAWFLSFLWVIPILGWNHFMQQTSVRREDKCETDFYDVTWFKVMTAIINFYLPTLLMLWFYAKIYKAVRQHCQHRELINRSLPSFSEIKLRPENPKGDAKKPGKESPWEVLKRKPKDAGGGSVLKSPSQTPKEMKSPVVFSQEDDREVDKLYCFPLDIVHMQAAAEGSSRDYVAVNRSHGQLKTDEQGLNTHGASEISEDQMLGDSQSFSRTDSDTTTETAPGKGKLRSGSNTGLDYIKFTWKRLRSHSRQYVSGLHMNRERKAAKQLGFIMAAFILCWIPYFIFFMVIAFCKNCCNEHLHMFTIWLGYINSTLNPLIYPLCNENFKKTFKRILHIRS
Sequence of Vasopressin V1a receptor (Homo sapiens) (P37288 whole entry, looked up): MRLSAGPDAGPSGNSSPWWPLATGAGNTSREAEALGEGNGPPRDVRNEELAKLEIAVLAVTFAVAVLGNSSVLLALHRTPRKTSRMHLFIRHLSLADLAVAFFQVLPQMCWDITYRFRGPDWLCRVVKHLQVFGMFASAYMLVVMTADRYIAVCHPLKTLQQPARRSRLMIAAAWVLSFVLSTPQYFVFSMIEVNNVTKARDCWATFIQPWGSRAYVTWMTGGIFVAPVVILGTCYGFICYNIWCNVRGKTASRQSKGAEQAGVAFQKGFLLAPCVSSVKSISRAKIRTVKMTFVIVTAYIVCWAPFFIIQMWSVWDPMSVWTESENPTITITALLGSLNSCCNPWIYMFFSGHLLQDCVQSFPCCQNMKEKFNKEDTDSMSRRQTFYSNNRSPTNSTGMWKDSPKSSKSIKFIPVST
Sequence of Alpha-1D adrenergic receptor (Homo sapiens) (P25100 whole entry): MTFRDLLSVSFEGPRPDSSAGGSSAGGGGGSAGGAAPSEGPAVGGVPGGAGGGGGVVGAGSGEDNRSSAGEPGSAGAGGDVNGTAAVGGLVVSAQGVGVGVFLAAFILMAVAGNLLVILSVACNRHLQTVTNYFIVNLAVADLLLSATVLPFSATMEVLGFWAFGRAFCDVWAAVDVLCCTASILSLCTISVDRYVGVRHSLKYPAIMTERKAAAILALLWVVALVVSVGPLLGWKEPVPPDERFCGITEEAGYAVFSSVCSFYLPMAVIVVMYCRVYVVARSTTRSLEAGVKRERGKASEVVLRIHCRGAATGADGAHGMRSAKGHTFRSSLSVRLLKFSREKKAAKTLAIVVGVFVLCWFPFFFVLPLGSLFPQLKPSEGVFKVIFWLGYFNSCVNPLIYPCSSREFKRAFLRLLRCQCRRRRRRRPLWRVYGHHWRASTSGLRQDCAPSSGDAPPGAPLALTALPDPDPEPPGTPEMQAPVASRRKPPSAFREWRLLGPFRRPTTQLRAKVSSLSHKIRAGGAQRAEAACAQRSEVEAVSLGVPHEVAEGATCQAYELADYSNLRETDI
Sequence of Muscarinic acetylcholine receptor M4 (Homo sapiens) (P08173 whole entry): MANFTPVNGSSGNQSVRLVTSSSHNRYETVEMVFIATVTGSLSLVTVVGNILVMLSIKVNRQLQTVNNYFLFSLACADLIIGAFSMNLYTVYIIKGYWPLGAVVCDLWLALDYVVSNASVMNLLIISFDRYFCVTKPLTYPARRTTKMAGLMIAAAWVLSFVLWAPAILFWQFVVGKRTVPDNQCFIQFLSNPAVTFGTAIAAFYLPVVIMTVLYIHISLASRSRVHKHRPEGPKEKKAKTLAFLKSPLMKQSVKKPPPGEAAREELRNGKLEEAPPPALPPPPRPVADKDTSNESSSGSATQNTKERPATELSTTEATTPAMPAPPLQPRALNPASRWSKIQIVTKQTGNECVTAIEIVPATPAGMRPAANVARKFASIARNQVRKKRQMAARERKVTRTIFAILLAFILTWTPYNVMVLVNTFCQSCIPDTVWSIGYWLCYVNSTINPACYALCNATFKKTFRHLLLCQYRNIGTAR
Sequence of 5-hydroxytryptamine receptor 2B (Homo sapiens) (P41595 whole entry): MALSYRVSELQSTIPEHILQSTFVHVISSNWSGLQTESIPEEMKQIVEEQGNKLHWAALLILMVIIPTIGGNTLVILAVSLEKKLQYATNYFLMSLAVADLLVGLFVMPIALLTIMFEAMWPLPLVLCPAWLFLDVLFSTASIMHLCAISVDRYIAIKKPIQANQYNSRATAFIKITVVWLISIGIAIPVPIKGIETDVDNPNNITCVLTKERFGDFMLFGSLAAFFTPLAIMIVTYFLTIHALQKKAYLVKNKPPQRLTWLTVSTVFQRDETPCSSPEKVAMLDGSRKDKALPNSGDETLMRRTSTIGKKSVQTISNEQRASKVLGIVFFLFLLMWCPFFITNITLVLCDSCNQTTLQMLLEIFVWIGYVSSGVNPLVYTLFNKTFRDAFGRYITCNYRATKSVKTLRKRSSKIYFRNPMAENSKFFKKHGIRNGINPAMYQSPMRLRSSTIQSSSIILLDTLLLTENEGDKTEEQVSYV
Sequence of Sodium-dependent serotonin transporter (Homo sapiens) (P31645 whole entry, looked up): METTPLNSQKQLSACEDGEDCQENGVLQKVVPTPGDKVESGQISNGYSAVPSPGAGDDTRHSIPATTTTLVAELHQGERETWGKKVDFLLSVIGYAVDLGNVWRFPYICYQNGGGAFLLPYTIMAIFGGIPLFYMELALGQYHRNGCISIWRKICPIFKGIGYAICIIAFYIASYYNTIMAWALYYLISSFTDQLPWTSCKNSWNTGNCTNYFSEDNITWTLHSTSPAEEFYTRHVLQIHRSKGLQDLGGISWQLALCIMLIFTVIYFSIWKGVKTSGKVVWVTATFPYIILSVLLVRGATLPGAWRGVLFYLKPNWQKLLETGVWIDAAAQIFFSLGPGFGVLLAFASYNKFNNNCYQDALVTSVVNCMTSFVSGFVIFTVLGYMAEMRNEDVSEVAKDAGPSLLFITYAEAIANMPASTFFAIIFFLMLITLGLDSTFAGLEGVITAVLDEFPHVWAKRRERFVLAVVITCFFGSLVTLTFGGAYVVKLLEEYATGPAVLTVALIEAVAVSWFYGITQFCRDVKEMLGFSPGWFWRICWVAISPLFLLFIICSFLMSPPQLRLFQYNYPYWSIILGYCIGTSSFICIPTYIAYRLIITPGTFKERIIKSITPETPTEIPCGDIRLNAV
Sequence of D(1A) dopamine receptor (Homo sapiens) (P21728 whole entry): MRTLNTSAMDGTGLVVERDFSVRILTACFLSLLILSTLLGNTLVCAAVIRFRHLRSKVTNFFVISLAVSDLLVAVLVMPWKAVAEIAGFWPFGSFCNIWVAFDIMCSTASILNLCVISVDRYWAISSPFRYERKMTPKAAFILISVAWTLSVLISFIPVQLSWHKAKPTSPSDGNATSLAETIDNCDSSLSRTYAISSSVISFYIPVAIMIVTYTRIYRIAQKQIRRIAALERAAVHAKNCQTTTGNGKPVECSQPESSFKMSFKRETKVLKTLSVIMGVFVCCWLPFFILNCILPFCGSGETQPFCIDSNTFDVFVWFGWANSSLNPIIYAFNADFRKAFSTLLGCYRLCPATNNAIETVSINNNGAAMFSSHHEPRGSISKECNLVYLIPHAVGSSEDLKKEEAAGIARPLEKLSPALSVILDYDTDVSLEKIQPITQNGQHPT
Sequence of C-X-C chemokine receptor type 2 (Homo sapiens) (P25025 whole entry): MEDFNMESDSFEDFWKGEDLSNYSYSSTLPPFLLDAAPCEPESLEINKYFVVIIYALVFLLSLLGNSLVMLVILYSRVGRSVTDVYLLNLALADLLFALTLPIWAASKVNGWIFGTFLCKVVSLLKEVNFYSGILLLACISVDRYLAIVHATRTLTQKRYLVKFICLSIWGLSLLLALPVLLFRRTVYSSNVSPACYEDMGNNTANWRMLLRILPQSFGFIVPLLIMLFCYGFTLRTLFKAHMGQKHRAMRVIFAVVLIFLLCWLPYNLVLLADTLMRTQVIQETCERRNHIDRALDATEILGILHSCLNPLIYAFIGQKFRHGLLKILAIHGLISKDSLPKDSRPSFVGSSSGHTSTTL

inhibition [1]	inhibition [2]	% Inhibition of Control Specific Binding (Mean n=2) [3]	inhibition [4]	inhibition [5]	inhibition [6]	% Inhibition of Control Specific Binding (Mean n=2) [7]	% Inhibition of Control Specific Binding (Mean n=2) [8]	% Inhibition of Control Specific Binding (Mean n=2) [9]	inhibition [10]	inhibition [11]	inhibition [12]	inhibition [13]	% Inhibition of Control Specific Binding (Mean n=2) [14]	% Inhibition of Control Specific Binding (Mean n=2) [15]	inhibition [16]	% Inhibition of Control Agonist Response (Mean n=2) [17]	% of Control Agonist Response (Mean n=2) [17]	inhibition [18]	SMILES
8.83%	23.4%	-3.3%	9.43%	21.7%	-8.88%	8%	4.6%	59.9%	6.49%	8.58%	4.24%	20.8%	7.3%	15.3%	18.6%	34.9%	-3.1%	–	CCOc1ccc(S(=O)(=O)Nc2ccc(Cl)cc2C#Cc2cnc(C(=O)O)cc2OC)c2ncccc12 [MSC-4381]
34.9%	80.3%	–	1.13%	-1.47%	84.3%	–	–	–	3.99%	17.8%	-5.83%	1.48%	–	–	40.2%	–	–	-9.21%	COc1cc(C(=O)O)ncc1C#Cc1ccccc1NS(=O)(=O)c1cccc2c(N(C)C)ccnc12 [MSC-0516]
